Patent US10138236B2, “Factor xia-inhibiting pyridobenzazepine and pyridobenzazocine derivatives” (BAYER PHARMA AKTIENGESELLSCHAFT, priority 2014, dated 2018)

Experiments:
[1] = biological target: human plasma kallikrein (Homo sapiens (Human), UniProt P03952); assay: Determination of the plasma kallikrein activity; assay type: biochemical; details: plasma kallikrein from Kordia, substrate H-Pro-Phe-Arg-AMC, fluorescence
Description: a.5) Determination of the Plasma Kallikrein Activity
(§1) To determine the plasma kallikrein inhibition of the substances according to the invention, a biochemical test system is used which utilizes the reaction of a peptidic plasma kallikrein substrate to determine the enzymatic activity of human plasma kallikrein. Here, plasma kallikrein cleaves from the peptic plasma kallikrein substrate the C-terminal aminomethylcoumarin (AMC), the fluorescence of which is measured. The determinations are carried out in microtitre plates.
1 μl of the diluted substance solutions is placed into each of the wells of white microtitre plates from Greiner (384 wells). 20 μl of assay buffer (50 mM Tris/HCl pH 7.4; 100 mM sodium chloride solution; 5 mM of calcium chloride solution; 0.1% of bovine serum albumin) and 20 μl of plasma kallikrein from Kordia (0.6 nM in assay buffer) are then added successively. After 15 min of incubation, the enzyme reaction is started by addition of 20 μl of the substrate H-Pro-Phe-Arg-AMC dissolved in assay buffer (10 μM in assay buffer) from Bachem, the mixture is incubated at room temperature (22° C.) for 30 min and fluorescence is then measured (excitation: 360 nm, emission: 460 nm). The measured emissions of the test batches with test substance are compared to those of control batches without test substance (only dimethyl sulphoxide instead of test substance in dimethyl sulphoxide), and IC50 values are calculated from the concentration/activity relationships.

[2] = biological target: human factor XIa (Homo sapiens (Human), UniProt P03951); assay: Measurement of FXIa inhibition; assay type: biochemical; details: factor XIa from Kordia, substrate Boc-Glu(OBzl)-Ala-Arg-AMC, fluorescence
human factor XIa, sequence (P03951 388-625): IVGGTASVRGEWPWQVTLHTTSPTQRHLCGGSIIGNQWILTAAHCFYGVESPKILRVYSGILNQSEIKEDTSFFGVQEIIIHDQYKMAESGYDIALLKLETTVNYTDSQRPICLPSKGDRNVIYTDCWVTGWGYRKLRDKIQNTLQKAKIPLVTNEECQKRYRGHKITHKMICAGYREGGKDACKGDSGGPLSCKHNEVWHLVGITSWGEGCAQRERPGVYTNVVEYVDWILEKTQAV
human factor XIa, sequence (P03951 19-387 partner): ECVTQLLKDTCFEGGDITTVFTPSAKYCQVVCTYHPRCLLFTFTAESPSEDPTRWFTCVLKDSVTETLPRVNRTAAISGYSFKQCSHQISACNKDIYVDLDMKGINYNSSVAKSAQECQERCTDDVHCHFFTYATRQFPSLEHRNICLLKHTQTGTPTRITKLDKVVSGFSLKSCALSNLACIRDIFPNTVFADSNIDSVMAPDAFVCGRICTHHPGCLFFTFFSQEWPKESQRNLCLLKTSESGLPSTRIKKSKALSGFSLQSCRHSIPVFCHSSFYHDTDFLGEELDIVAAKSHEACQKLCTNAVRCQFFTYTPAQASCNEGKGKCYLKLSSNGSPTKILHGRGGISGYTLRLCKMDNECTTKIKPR
Description: a.1) Measurement of FXIa Inhibition
as §1, with “The factor XIa” for “To determine the plasma kallikrein”, “invention is determined using” for “invention,”, “system” for “system is used”, “factor XIa” for “plasma kallikrein”, “factor XIa.” for “plasma kallikrein.”
1 μl of the diluted substance solutions is placed into each of the wells of white microtitre plates from Greiner (384 wells). […] After 15 min of incubation, the enzyme reaction is started by addition of 20 μl of the factor XIa substrate Boc-Glu(OBzl)-Ala-Arg-AMC dissolved in assay buffer (10 μM in assay buffer) from Bachem, the mixture is incubated at room temperature (22° C.) for 30 min and fluorescence is then measured (excitation: 360 nm, emission: 460 nm). The measured emissions of the test batches with test substance are compared to those of control batches without test substance (only dimethyl sulphoxide instead of test substance in dimethyl sulphoxide), and IC50 values are calculated from the concentration/activity relationships.

human plasma kallikrein, sequence (P03952 391-638): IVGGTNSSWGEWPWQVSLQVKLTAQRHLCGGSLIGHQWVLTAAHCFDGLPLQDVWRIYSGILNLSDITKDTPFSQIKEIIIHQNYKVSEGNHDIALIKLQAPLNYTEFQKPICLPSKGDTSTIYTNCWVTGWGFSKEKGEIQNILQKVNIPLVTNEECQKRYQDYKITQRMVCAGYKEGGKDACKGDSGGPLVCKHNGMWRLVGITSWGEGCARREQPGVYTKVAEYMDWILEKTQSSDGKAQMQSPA
human plasma kallikrein, sequence (P03952 20-390 partner): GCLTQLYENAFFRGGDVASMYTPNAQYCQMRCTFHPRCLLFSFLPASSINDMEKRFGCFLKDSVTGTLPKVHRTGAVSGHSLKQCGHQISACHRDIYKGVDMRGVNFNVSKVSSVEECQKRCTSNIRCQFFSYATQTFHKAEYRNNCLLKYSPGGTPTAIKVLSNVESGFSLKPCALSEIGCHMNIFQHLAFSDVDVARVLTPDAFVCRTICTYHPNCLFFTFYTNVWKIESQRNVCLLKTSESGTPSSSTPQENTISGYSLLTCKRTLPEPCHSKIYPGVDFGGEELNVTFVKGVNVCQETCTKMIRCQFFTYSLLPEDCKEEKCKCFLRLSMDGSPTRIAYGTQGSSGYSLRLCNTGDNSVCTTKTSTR

IC50 [1] [nM] | IC50 [2] [nM] | SMILES
4500 | 47 | COCCC(C(=O)Nc1ccc(C(=O)O)nc1)n1cc2c(cc1=O)-c1cc(Cl)ccc1CC1(CC1)NC2=O (stereo not shown) [Example 20, 5-{[2-(11′-Chloro-2′,5′-dioxo-2′,5′,6′,8′-tetrahydro-3′H-spiro[cyclopropane-1,7′-pyrido[3,4-e][3]benzazocine]-3′-yl)-4-methoxybutanoyl]amino}pyridine-2-carboxylic acid]
240 | 8.2 | COCCC(C(=O)Nc1ccc2nn(C)cc2c1)n1cc2c(cc1=O)-c1cc(Cl)ccc1CC1(CC1)NC2=O (stereo not shown) [Example 15, 2-(11′-Chloro-2′,5′-dioxo-2′,5′,6′,8′-tetrahydro-3′H-spiro[cyclopropane-1,7′-pyrido[3,4-e][3]benzazocine]-3′-yl)-4-methoxy-N-(2-methyl-2H-indazol-5-yl)butanamide]
